One series addresses T1, human GLP-1R (Homo sapiens, UniProt P43220).
T1 construct: expressed in transfected cells; host or cells: 293HEK, Hygromycin-selected; crude plasma membranes
The series can be described thus: Functional hGLP-1R cAMP assay in HEK-293 clonal cells. The class given is cell-based. As to conditions: HEK293; percent of maximal response of hGLP-1(7-36)NH2. Background: Changes in cAMP serve as a functional read-out for many G protein-coupled receptors.

The next series concerns the target T2, human GIP-R (Homo sapiens, UniProt P48546).
T2 sequence (P48546 22-466): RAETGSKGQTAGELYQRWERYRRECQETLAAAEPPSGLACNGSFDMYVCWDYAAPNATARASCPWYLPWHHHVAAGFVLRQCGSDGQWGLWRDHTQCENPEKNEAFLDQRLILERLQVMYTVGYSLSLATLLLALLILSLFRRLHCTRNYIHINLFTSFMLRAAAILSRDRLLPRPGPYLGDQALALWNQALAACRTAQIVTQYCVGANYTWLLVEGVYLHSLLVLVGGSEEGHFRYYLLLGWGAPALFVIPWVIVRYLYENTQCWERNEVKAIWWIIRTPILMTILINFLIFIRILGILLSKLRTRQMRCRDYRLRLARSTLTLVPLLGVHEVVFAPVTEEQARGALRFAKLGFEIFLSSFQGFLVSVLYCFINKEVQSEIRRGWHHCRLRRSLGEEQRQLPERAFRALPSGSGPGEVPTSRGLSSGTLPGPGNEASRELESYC
Put plainly: Functional hGIP-R cAMP assay in HEK-293 clonal cells. As to conditions: HEK293, read-out: Human GIP-R Emax.

In a further series the target is Human GCGR (Homo sapiens, UniProt P47871). Put plainly: Functional hGCGR cAMP assay in HEK-293 clonal cells.
The nature of series [1]: Pharmacokinetics in cynomolgus monkeys. The following applies: cynomolgus monkey, plasma, single SC 0.2 mg/kg, male monkeys, n = 2. The series is classed as in vivo. How it is done: The compounds are administered by a single intravenous or subcutaneous dose (0.2 mg/kg) in 20 mM citrate buffer (pH 7.0) at a volume of 0.21 ml/kg. Blood is collected from each animal at 2, 4, 8, 12, 24, 48, 72, 96, 120, 144, 168, 204, 240, and 312 hours post-dosage. The plasma concentrations of compounds of the present invention are determined by a LC/MS method. Briefly, a compound of the present invention is extracted from 100% Monkey plasma sample (50 μl) diluted with 1×PBS (150 μl) and mixed with N-butanol (400 μl). Three distinct liquid layers are formed with the compound located in the top layer. A volume of 200 μl is transferred to a v-bottom 96-well plate, dried down using heated Nitrogen gas and reconstituted with 100 μl of 30% acetonitrile/0.1% formic acid. 20 μl of the reconstituted sample is injected onto a Supelco Analytical Discovery bio wide C5 3 μm column. The column effluent is directed into a Thermo Q-Exactive mass spectrometer for detection and quantitation.

Series [2] can be described thus: Rat in vivo insulin secretion following intravenous glucose (IVGTT). As to conditions: s.c. 16 hour prior to glucose. On the procedure:
Male Wistar rats (Harlan Labs, Indianapolis, Ind.) are randomized by body weight and dosed 1.5 ml/kg s.c. 16 hour prior to glucose administration and then fasted. Doses are vehicle, 0.1, 0.3, 1, 3 and 10 nmol/kg. Animals are weighed, and then anesthetized with sodium pentobarbital (Nembutal Sodium solution; Ovation Pharmaceuticals) dosed i.p. (65 mg/kg, 30 mg/ml). A time zero blood sample is collected into EDTA tubes after which glucose is administered ([…], 5 ml/kg). Blood samples are collected at 2, 4, 6, 10, 20, and 30 minutes post glucose. Plasma glucose levels are determined using a Hitachi analyzer (Roche) and plasma insulin is measured by the MSD insulin assay (Meso Scale, Gaithersburg, Md.).

Series [3] can be described thus: Weight loss, body composition and hepatic steatosis in DIO mice. The class given is in vivo, mouse. As to conditions: for Blood Glucose: Day 15. How it is done: The effects on weight loss, body composition and hepatic steatosis in DIO mice for compounds of the present invention are evaluated in C57/BL6 DIO mice. […] Animals are individually housed in a temperature-controlled (24° C.) facility with a 12 hour light/dark cycle (lights on 22:00), and free access to food and water. […] Daily body weight and food intake are measured throughout the study. Absolute changes in body weight are calculated by subtracting the body weight of the same animal prior to the first injection of compound. […] On Day 15, blood glucose is measured with Accu-Chek glucometer (Roche) from tail vein blood and then animals may be sacrificed and livers removed and frozen. Liver triglycerides, determined from homogenates of livers collected at sacrifice, and plasma cholesterol are measured on a Hitachi Modular P clinical analyzer. Statistical comparisons between groups are done using one-way ANOVA followed by Dunnett's multiple comparison test. The ED50 for weight loss lowering is determined in GraphPad Prism using the non-linear fit tool.

Numbered stars: 1 amine (or outer) side, 2 acyl side, 3 side chain; on linkers, the order of the positions; unused ones are H or OH. Square brackets hold non-standard residues; d marks the D form. Side chains are listed from the residue outwards. Peptide text beside a SMILES is read from it. * marks the point of attachment. C20 diacid = O=C(O)CCCCCCCCCCCCCCCCCCC(=O)*; γGlu = O=C(O)[C@H](CCC(=O)[*:2])N[*:1]; 1Nal = N[C@@H](Cc1cccc2ccccc12)C(=O)O; AEEA = NCCOCCOCC(=O)O; Aib = CC(C)(N)C(=O)O

As a reminder, the Emax is the greatest response seen or fitted, relative to the assay's reference. One may read the EC50 as the midpoint of the concentration-response curve. What is called CL/F is the apparent clearance, not corrected for the fraction that reaches the circulation. In general, Cmax refers to the highest concentration seen after dosing. A word on the Tmax: it is the time at which the peak concentration occurs.

Human GCGR, sequence (P47871 26-477): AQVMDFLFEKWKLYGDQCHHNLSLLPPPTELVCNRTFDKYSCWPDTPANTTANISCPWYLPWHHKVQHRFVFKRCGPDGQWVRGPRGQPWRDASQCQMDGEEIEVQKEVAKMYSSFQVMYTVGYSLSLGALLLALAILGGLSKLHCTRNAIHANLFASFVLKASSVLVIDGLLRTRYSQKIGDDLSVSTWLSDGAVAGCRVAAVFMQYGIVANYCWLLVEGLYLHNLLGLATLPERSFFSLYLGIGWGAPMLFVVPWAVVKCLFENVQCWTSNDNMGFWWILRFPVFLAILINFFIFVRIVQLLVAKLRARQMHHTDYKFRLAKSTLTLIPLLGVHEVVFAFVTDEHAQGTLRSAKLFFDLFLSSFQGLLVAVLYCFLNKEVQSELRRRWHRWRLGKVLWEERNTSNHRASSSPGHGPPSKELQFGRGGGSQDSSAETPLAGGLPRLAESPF
T1 sequence (P43220 24-463): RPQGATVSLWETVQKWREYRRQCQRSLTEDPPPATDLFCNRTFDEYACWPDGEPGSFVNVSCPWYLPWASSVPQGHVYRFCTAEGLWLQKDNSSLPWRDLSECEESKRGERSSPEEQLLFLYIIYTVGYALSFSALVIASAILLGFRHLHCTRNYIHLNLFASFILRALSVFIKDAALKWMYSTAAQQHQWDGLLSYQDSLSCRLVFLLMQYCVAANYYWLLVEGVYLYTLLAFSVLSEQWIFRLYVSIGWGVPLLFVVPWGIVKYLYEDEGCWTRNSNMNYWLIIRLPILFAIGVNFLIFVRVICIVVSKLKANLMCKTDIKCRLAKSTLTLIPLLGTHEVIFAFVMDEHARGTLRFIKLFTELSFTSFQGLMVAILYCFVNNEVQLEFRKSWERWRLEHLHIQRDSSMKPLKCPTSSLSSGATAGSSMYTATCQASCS
Protocol for human GIP-R: After an incubation of 60 minutes at room temperature, the resulting increase in intracellular cAMP is quantitatively determined using the CisBio cAMP Dynamic 2 HTRF Assay Kit (Bedford, Mass.). Briefly, cAMP levels within the cell are detected by adding the cAMP-d2 conjugate in cell lysis buffer (20 μl) followed by the antibody anti-cAMP-Eu^3+-Cryptate, also in cell lysis buffer (20 μl). The resulting competitive assay is incubated for at least 60 minutes at room temperature, then detected using a PerkinElmer Envision® instrument with excitation at 320 nm and emission at 665 nm and 620 nm Envision units (emission at 665 nm/620 nm*10,000) are inversely proportional to the amount of cAMP present and are converted to nM cAMP per well using a cAMP standard curve. […] A relative EC50 value and percent top (Emax) is derived by non-linear regression analysis using the percent maximal response versus the concentration of the compound of the present invention, fitted to a four-parameter logistic equation.

As for `CC[C@H](C)[C@H](NC(=O)[C@H](CC(C)C)NC(=O)[C@H](Cc1c[nH]c2ccccc12)NC(=O)[C@H](CCC(N)=O)NC(=O)[C@@H](NC(=O)[C@H](Cc1cccc2ccccc12)NC(=O)[C@H](C)NC(=O)[C@H](CCCCNC(=O)COCCOCCNC(=O)COCCOCCNC(=O)CC[C@H](NC(=O)CC[C@H](NC(=O)CCCCCCCCCCCCCCCCCCC(=O)O)C(=O)O)C(=O)O)NC(=O)[C@H](CCC(N)=O)NC(=O)[C@H](C)NC(=O)[C@@H](NC(=O)[C@H](CCCCN)NC(=O)[C@H](CC(=O)O)NC(=O)[C@H](CC(C)C)NC(=O)C(C)(C)NC(=O)[C@@H](NC(=O)[C@H](CO)NC(=O)[C@H](Cc1ccc(O)cc1)NC(=O)[C@H](CC(=O)O)NC(=O)[C@H](CO)NC(=O)[C@@H](NC(=O)[C@H](Cc1ccccc1)NC(=O)[C@@H](NC(=O)CNC(=O)[C@H](CCC(=O)O)NC(=O)C(C)(C)NC(=O)[C@@H](N)Cc1ccc(O)cc1)[C@@H](C)O)[C@@H](C)O)[C@@H](C)CC)[C@@H](C)CC)C(C)C)C(=O)N[C@@H](C)C(=O)NCC(=O)NCC(=O)N1CCC[C@H]1C(=O)N[C@@H](CO)C(=O)N[C@@H](CO)C(=O)NCC(=O)N[C@@H](C)C(=O)N1CCC[C@H]1C(=O)N1CCC[C@H]1C(=O)N1CCC[C@H]1C(=O)N[C@@H](CO)C(N)=O` [Example 2] (H-Y[Aib]EGTFTSDYSI[Aib]LDKIAQK([AEEA-AEEA-γGlu-γGlu-C20 diacid])A[1Nal]VQWLIAGGPSSGAPPPS-NH2), on human GLP-1R, the Emax is 98.2 ± 5.5%. Besides, the maximum response (Emax) on human GIP-R worked out at 94.7 ± 2%. On Human GCGR, this compound gave an EC50 of more than 1 µM. In series [1], this compound had a CL/F of 1.2 mL/h/kg and a Cmax of 2100 ng/mL. Also, the AUC(0-inf) in series [1] (read-out: Mean AUC0-inf) turned out to be 173 µg·h/mL. In series [1] (read-out: Mean T1/2 (converted)), the half-life was 43 h. The Tmax in series [1] (read-out: Mean Tmax) came to 24 h.
In the case of `CC[C@H](C)[C@H](NC(=O)[C@H](CC(C)C)NC(=O)[C@H](Cc1c[nH]c2ccccc12)NC(=O)[C@H](CCC(N)=O)NC(=O)[C@@H](NC(=O)[C@H](Cc1ccccc1)NC(=O)[C@H](C)NC(=O)[C@H](CCCCNC(=O)COCCOCCNC(=O)COCCOCCNC(=O)CC[C@H](NC(=O)CC[C@H](NC(=O)CCCCCCCCCCCCCCCCCCC(=O)O)C(=O)O)C(=O)O)NC(=O)[C@H](CCC(N)=O)NC(=O)[C@H](C)NC(=O)[C@@H](NC(=O)[C@H](CCCCN)NC(=O)[C@H](CC(=O)O)NC(=O)[C@H](CC(C)C)NC(=O)C(C)(C)NC(=O)[C@@H](NC(=O)[C@H](CO)NC(=O)[C@H](Cc1ccc(O)cc1)NC(=O)[C@H](CC(=O)O)NC(=O)[C@H](CO)NC(=O)[C@@H](NC(=O)[C@H](Cc1ccccc1)NC(=O)[C@@H](NC(=O)CNC(=O)[C@H](CCC(=O)O)NC(=O)C(C)(C)NC(=O)[C@@H](N)Cc1ccc(O)cc1)[C@@H](C)O)[C@@H](C)O)[C@@H](C)CC)[C@@H](C)CC)C(C)C)C(=O)N[C@@H](C)C(=O)NCC(=O)NCC(=O)N1CCC[C@H]1C(=O)N[C@@H](CO)C(=O)N[C@@H](CO)C(=O)NCC(=O)N[C@@H](C)C(=O)N1CCC[C@H]1C(=O)N1CCC[C@H]1C(=O)N1CCC[C@H]1C(=O)N[C@@H](CO)C(N)=O` [Example 5], in series [2], the “% max increase of insulin AUC” value is listed as 349 +/− 39%. For the same compound, the “ED50 for insulin, rat IVGTT” value in series [2] was 1.02 nmol/kg. In addition, the “% Change from starting body weight” value in series [3] (Table 9, 10 nmol/kg) is −23.42 ± 1.43 %; in series [3] (Table 9, 30 nmol/kg), −26.84 ± 3.14 %; in series [3] (Table 9, 100 nmol/kg) it was −37.86 ± 2.25 %. In addition, the “% Change from starting fat mass” value in series [3] (Table 9, 10 nmol/kg) is −51.28 ± 1.89 %; in series [3] (Table 9, 30 nmol/kg) it was −62.77 ± 5.49 %; in series [3] (Table 9, 100 nmol/kg) it was −81.08 ± 1.68 %. The “Liver Triglycerides” value in series [3] (Table 12, 10 nmol/kg) was determined as 48.30 ± 8.14 mg/g tissue; in series [3] (Table 12, 30 nmol/kg) it was 39.60 ± 4.71 mg/g tissue; in series [3] (Table 12, 100 nmol/kg), 67.96 ± 13.53 mg/g tissue. The “Plasma Cholesterol” value in series [3] (Table 12, 10 nmol/kg) worked out at 126.6 ± 9.67 mg/dL; in series [3] (Table 12, 30 nmol/kg) it was 108.2 ± 13.84 mg/dL; in series [3] (Table 12, 100 nmol/kg), 108.6 ± 4.83 mg/dL. For the same compound, the “Blood Glucose” value in series [3] (Table 12, 10 nmol/kg) amounted to 111.00 ± 6.56 mg/dL; in series [3] (Table 12, 30 nmol/kg), 104.5 ± 5.30 mg/dL; in series [3] (Table 12, 100 nmol/kg), 105.3 ± 6.16 mg/dL. The Emax was 105 ± 4% at human GLP-1R and 105 ± 2% at human GIP-R. The compound further registered an EC50 at Human GCGR of more than 1 µM.
